Assay results: patent US20100292292A1, “Treatment of Neurodegenerative Diseases Using Indatraline Analogs” (LINK MEDICINE CORPORATION, priority 2007, published 2010)
Entries after “also recorded” stand apart in the source; their conditions may differ.

How the values were obtained:
[1] = target: T1, purified recombinant human α-synuclein (Homo sapiens, UniProt P37840); assay: α-synuclein structure formation/aggregation in the presence of HFIP (Thioflavin T fluorescence, fluorescence polarization); type: binding; conditions: α-synuclein 20 μM, 25 mM Tris pH 8.0, 3.1% HFIP, room temperature, compound 50-400 μM, Thioflavin T fluorescence and/or fluorescence polarization
Experimental: HFIP induces rapid structure formation and aggregation of α-synuclein (Munishkina et al., Biochemistry 42:2720-30, 2003; Maiti, Apetri et al., J Am Chem Soc, 126:2399-408, 2004; each of which is incorporated herein by reference). Compounds were incubated with purified recombinant human α-synuclein (20 μM) in a buffer containing HFIP (25 mM Tris, pH 8.0, 3.1% HFIP) at room temperature. Structure formation was monitored by Thioflavin T fluorescence and fluorescence polarization. Thioflavin T fluorescence can be used to measure aggregation of amyloidogenic proteins, including α-synuclein (excitation, 440 nm; emission, 495 nm) (Naiki et al., Anal. Biochem., 177:244-9, 1989; Conway et al., Biochemistry, 39:2552-63, 2000; each of which is incorporated herein by reference). Average molecular size was monitored by fluorescence polarization using human α-synuclein covalently conjugated to Alexa Fluor 594 (excitation, 546 nm; emission, 620 nm). Assays were performed in a 384-well plate and readings taken directly from each well over time.

[2] = target: T1, purified recombinant human α-synuclein; assay: α-synuclein aggregation in aqueous solution (Thioflavin T fluorescence, fluorescence polarization); type: biochemical; conditions: α-synuclein 70 μM, 20 mM Bis-tris propane pH 7.4, 100 mM LiCl, 37° C., gentle agitation, Thioflavin T fluorescence and/or fluorescence polarization
Experimental: Compounds were incubated with purified recombinant human α-synuclein (70 μM) in an aqueous buffer system (20 mM Bis-tris propane, pH 7.4, 100 mM LiCl) at 37° C. with gentle agitation. Structure formation was monitored by Thioflavin T fluorescence and/or fluorescence polarization. Thioflavin T fluorescence can be used to measure aggregation of amyloidogenic proteins, including α-synuclein (excitation, 440 nm; emission, 495 nm) (Naiki, H.; Higuchi, K.; Hosokawa, M.; Takeda, T., Fluorometric determination of amyloid fibrils in vitro using the fluorescent dye, thioflavin T1. Anal Biochem 1989, 177, (2), 244-9; incorporated herein by reference). Average molecular size was monitored by fluorescence polarization using human α-synuclein covalently conjugated to Alexa Fluor 594 (excitation, 546 nm; emission, 620 nm) (Luk, K. C.; Hyde, E. G.; Trojanowski, J. Q.; Lee, V. M., Sensitive fluorescence polarization technique for rapid screening of alpha-synuclein oligomerization/fibrillization inhibitors. Biochemistry 2007, 46, (44), 12522-9; incorporated herein by reference).

[3] = tested on: α-synuclein-induced retinal degeneration in transgenic Drosophila (human A30P α-synuclein); assay: Drosophila retinal assay; type: in vivo; conditions: transgenic Drosophila expressing human A30P α-synuclein in retina, drug in food
Text: Human A30P α-synuclein expression was directed to the retina with the glass multimer reporter (GMR) promoter. The transgene induces progressive retinal degeneration. Dry food (Formula 4-24; Carolina Biological Supply) was rehydrated with water or an aqueous solution of drug. Drug concentration refers to the final concentration of compound in the aqueous solution. Transgenic female flies less than 12-hours-old were placed on either untreated or drug-embedded food. For analysis of retinal degeneration, fly heads were annealed to a glass microscope, then eyes were transilluminated following optical neutralization of the corneas with immersion oil and examined under a 100× lens (Franceschini, N., Pupil and pseudopupil in the compound eye of Drosophila. In Information processing in the visual system of Drosophila, Wehner, R., Ed. Springer: Berlin, 1972; pp 75-82; incorporated here in by reference). For quantitation, 20-50 ommatidia per eye of at least 12 eyes were examined per group. The percent normal ommatidia was calculated for each eye and averaged for each sample set. Indatraline suppressed α-synuclein-induced retinal degeneration (FIG. 26A).

[4] = tested on: dopaminergic neurons (primary rat embryonic midbrain culture) infected with lentivirus encoding human A53T α-synuclein; assay: Primary neuronal toxicity assay; type: cell-based; conditions: for decrease of α-synuclein neurotoxicity in dopaminergic neurons (TH+ cells): E17 rat midbrain culture, A53T α-synuclein lentivirus, 3 days treatment
Text: Indatraline decreased α-synuclein neurotoxicity in dopaminergic neurons. Midbrain cultures will be prepared from E17 rat ventral mesencephalon as described in a published protocol (Xu, J.; Kao, S. Y.; Lee, F. J.; Song, W.; Jin, L. W.; Yankner, B. A., Dopamine-dependent neurotoxicity of alpha-synuclein: a mechanism for selective neurodegeneration in Parkinson disease. Nat Med 2002, 8, (6), 600-6; incorporated herein by reference). Cultured cells were infected with a recombinant lentivirus encoding human A53T α-synuclein (A53T) or a control virus (none). Cells were treated with various concentrations of indatraline (black bars) for 3 days. Cells were then fixed and immunostained for Microtubule-associated protein 2, which stains all neurons, and Tyrosine Hydroxylase, a marker for dopaminergic neurons. Toxicity of A53T α-synuclein toward dopaminergic neurons was determined by calculating the percentage neurons positive for tyrosine hydroxylase (TH^+ cells).

alpha-synuclein = alpha-synuclein (Homo sapiens, UniProt P37840); assay: Solution NMR binding studies
Text: Importantly, stabilization of such off-pathway conformers can reduce the rate of α-synuclein fibrillization. For instance, sequence changes that promote formation of helical conformers also reduce the rate of α-synuclein fibrillization. A novel screen was devised to identify small molecules capable of promoting off-pathway conformers of α-synuclein. A screen of 640 central nervous system (CNS-active) compounds, including many approved CNS drugs, identified an active compound, indatraline (INDAT), a monoamine reuptake inhibitor that has been widely used as a research tool.

SMILES: CN[C@@H]1C[C@@H](c2ccc(Cl)c(Cl)c2)c2ccccc21 [Indatraline, indatraline]
- binding to α-synuclein and effect on the rate of structure formation/aggregation in the presence of HFIP [1]: bind to α-synuclein and affect the rate of protein aggregation
- binding to α-synuclein and effect on the rate of structure formation/aggregation in the presence of HFIP ([1]; listed as indatraline): binds to α-synuclein and affects the rate of structure formation
- delay of α-synuclein aggregation in aqueous solution [2]: delay the initiation of α-synuclein aggregation
- delay of α-synuclein aggregation in aqueous solution ([2]; listed as indatraline): reduced the rate of alpha-synuclein fibrillization (and nucleation); also recorded: delays aggregation of α-synuclein in a dose-dependent manner
- suppression of α-synuclein-induced retinal degeneration (percent normal ommatidia) [3]: suppresses α-synuclein-induced retinal degeneration; also recorded: decreases α-synuclein-mediated retinal degeneration
- suppression of α-synuclein-induced retinal degeneration (percent normal ommatidia) ([3]; listed as indatraline): reduced the toxicity of alpha-synuclein; also recorded: suppress α-synuclein-induced retinal degeneration
- decrease of α-synuclein neurotoxicity in dopaminergic neurons (TH+ cells) [4]: diminished toxicity of A53T α-synuclein toward dopaminergic neurons in a dose-dependent manner; also recorded: decreases α-synuclein neurotoxicity
- decrease of α-synuclein neurotoxicity in dopaminergic neurons (TH+ cells) ([4]; listed as indatraline): reduced the toxicity of alpha-synuclein; also recorded: decrease α-synuclein neurotoxicity
- IC50 ([4]; Neuron, primary rat embryonic midbrain culture, FIG. 26B, read-out: IC50, reduction of alpha-synuclein toxicity in dopaminergic neurons): ~500 nM
- binding site on alpha-synuclein by solution NMR (alpha-synuclein): binds at a sequence near the C-terminus of alpha-synuclein

SMILES: CN(C)C1CC(Cc2ccc(Cl)c(Cl)c2)c2ccccc21 (stereo not drawn) [LNK-122]
- binding to α-synuclein and effect on the rate of structure formation/aggregation in the presence of HFIP [1]: binds to α-synuclein and affects the rate of structure formation; also recorded: bind to α-synuclein and affect the rate of protein aggregation

SMILES: c1ccc(CNCC2CC(c3ccccc3)c3ccccc32)cc1 (stereo not drawn) [LNK-1521]
- binding to α-synuclein and effect on the rate of structure formation/aggregation in the presence of HFIP [1]: bind to α-synuclein and affect the rate of protein aggregation
